From article PMC8110684, “Effects of Bacillus subtilis iturin A on HepG2 cells in vitro and vivo” (AMB Express, 2021)
Where two headings read alike, the source gives them in different places. Where a SMILES comes first, the peptide text is derived from it.

Assays:
[1] = Effect of treatment on mice health (weight, serum biochemistry, necropsy, histopathology); type: in vivo, BALB/c nude mice; settings: 3 mg/kg per day
Method: During the 15-day trial, the weight and food intake of mice were recorded daily.
At euthanasia, blood was collected after the animals had been fasted overnight. Blood samples were collected from both control and test groups via cardiac puncture under ketamine anesthesia. All blood samples were then subjected to clinical analysis of aspartate aminotransferase (AST), alanine aminotransferase (ALT), and creatinine (SCr).
Mice were examined for gross lesions. Tissues and organs of interest were retained. The liver, kidneys, and spleen of all mice were weighed soon after dissection and then preserved in 4% paraformaldehyde for histopathological examination (Turki et al. [2010]). Histopathological assessments were performed to evaluate viscera retained from both control and treated animals. Viscera of interest were trimmed, processed, embedded in paraffin, sectioned, and stained with H&E before their microscopic examination.

HepG2 cells [2] = tested on: HepG2 cells
Method: (§1) The purified CFNSE-iturin A was dissolved in cell culture medium and incubated with HepG2 cells for 10 min, and then observed under a fluorescence microscope and photographed. The control group was cells incubated with CFNSE for the same time.

HepG2 cells [3] = test: Capability to enter cells (CFNSE label, fluorescence microscopy); settings: dissolved in cell culture medium, incubated with HepG2 for 10 min, fluorescence microscope
Method: as §1

Molecule: CCCCCCCCCCCC1CC(=O)N[C@@H](CC(N)=O)C(=O)N[C@H](Cc2ccc(O)cc2)C(=O)N[C@H](CC(N)=O)C(=O)N[C@@H](CCC(N)=O)C(=O)N2CCC[C@H]2C(=O)N[C@H](CC(N)=O)C(=O)N[C@@H](CO)C(=O)N1 (stereo partly shown) [iturin A] (HELM PEPTIDE1{N.[dY].[dN].Q.P.[dN].S.[CCCCCCCCCCCC(CC(=O)[*:2])N[*:1]]}$PEPTIDE1,PEPTIDE1,1:R1-8:R2$$$V2.0)
- kidney histopathology (H&E) ([1]; 15 days): no necrotic cells or cell swelling was found
- liver histopathology (H&E) ([1]; 15 days): no hepatocyte swelling, necrosis, inflammatory cell infiltration, or other phenomena were observed
- spleen histopathology (H&E) ([1]; 15 days): orderly arrangement of cells without necrosis
- body weight versus control group ([1]; 15 days, n = 6): no significant difference
- weight and viscera indexes of liver, spleen and kidney versus control ([1]; 15 days, n = 6): No significant differences
- serum ALT versus control ([1]; end of administration, n = 6): increased significantly
- serum AST versus control ([1]; end of administration, n = 6): increased significantly
- serum creatinine (SCr) versus control ([1]; end of administration, n = 6): no significant difference
- entry into HepG2 cells (cell fluorescence) (HepG2 cells [2]): could enter HepG2 cells within very short time

Molecule: 5(6)-Carboxy fluorescein N-succinimidyl ester [CFNSE]
- entry into HepG2 cells (cell fluorescence) (HepG2 cells [3]): could not enter the cells
